Results taken from patent US20190315823A1, “SMALL CATIONIC ANTI-BIOFILM AND IDR PEPTIDES” (priority 2013, published 2019).
Ends that are not written are not given here.

System: human peripheral blood mononuclear cells (MCP-1)
Test: SPOT-synthesized derivative screen: production of chemokine MCP-1
Type: cell-based
Conditions: Table 12; No LPS; human PBMC, peptide at ~18-24 μM
In short: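 MCP-1 was quantified by capture ELISA in cleared culture supernatants of treated human peripheral blood mononuclear cells. Cells came from heparinized volunteer blood via Ficoll gradient and were seeded at 0.75 to 1×10^6 cells/ml (37 °C, 5% CO2).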

Row | Substance | Fold increase in MCP1 cf. untreated cells
1 | 1002-I8: single substituted 1002 peptide (VQRWLIVIRIRK-NH2) [Peptide 1002-I8] | 6.7
2 | HH2-W6: single substituted HH2 peptide (VQLRIWVAVIRA-NH2) | 4.1
3 | HH2-A11: single substituted HH2 peptide (VQLRIRVAVIAA-NH2) | 5.9
4 | HH2-L10: single substituted HH2 peptide (VQLRIRVAVLRA-NH2) | 21
5 | 1018-Q2: single substituted 1018 peptide (VQLIVAVRIWRR-NH2) [Peptide 1018-Q2] | 3.5
6 | HH2-Q6: single substituted HH2 peptide (VQLRIQVAVIRA-NH2) | 191
7 | 1002-L3: single substituted 1002 peptide (VQLWLIVWRIRK-NH2) [Peptide 1002-L3] | 1.4
8 | 1018-L2: single substituted 1018 peptide (VLLIVAVRIWRR-NH2) [Peptide 1018-L2] | 0.8
9 | 1002-G10: single substituted 1002 peptide (VQRWLIVWRGRK-NH2) [Peptide 1002-G10] | 1.4
10 | HH2-L2: single substituted HH2 peptide (VLLRIRVAVIRA-NH2) | 13
11 | 1018-L12: single substituted 1018 peptide (VRLIVAVRIWRL-NH2) [Peptide 1018-L12] | 1.2
12 | HH2-R2: single substituted HH2 peptide (VRLRIRVAVIRA-NH2) | 4.6
13 | 1002-K5: single substituted 1002 peptide (VQRWKIVWRIRK-NH2) [Peptide 1002-K5] | 3.4
14 | 1002-R12: single substituted 1002 peptide (VQRWLIVWRIRR-NH2) [Peptide 1002-R12] | 2.1
15 | 1002-L4: single substituted 1002 peptide (VQRLLIVWRIRK-NH2) [Peptide 1002-L4] | 3.0

Same assay, conditions: Table 12; No LPS; human PBMC, peptide at ~18-24 μM; background subtracted 139 (HH2 derivatives), 170 (1018 derivatives), 242 (1002 and hybrid peptides) pg/ml

Row | Substance | MCP1
16 | 1002-I8: single substituted 1002 peptide (VQRWLIVIRIRK-NH2) [Peptide 1002-I8] | 1393.2 pg/mL
17 | HH2-W6: single substituted HH2 peptide (VQLRIWVAVIRA-NH2) | 534 pg/mL
18 | HH2-A11: single substituted HH2 peptide (VQLRIRVAVIAA-NH2) | 833 pg/mL
19 | HH2-L10: single substituted HH2 peptide (VQLRIRVAVLRA-NH2) | 3338 pg/mL
20 | 1018-Q2: single substituted 1018 peptide (VQLIVAVRIWRR-NH2) [Peptide 1018-Q2] | 422 pg/mL
21 | HH2-Q6: single substituted HH2 peptide (VQLRIQVAVIRA-NH2) | 32306 pg/mL
22 | 1002-L3: single substituted 1002 peptide (VQLWLIVWRIRK-NH2) [Peptide 1002-L3] | 106.3 pg/mL
23 | 1018-L2: single substituted 1018 peptide (VLLIVAVRIWRR-NH2) [Peptide 1018-L2] | -35 pg/mL
24 | 1002-G10: single substituted 1002 peptide (VQRWLIVWRGRK-NH2) [Peptide 1002-G10] | 91.3 pg/mL
25 | HH2-L2: single substituted HH2 peptide (VLLRIRVAVIRA-NH2) | 1950 pg/mL
26 | 1018-L12: single substituted 1018 peptide (VRLIVAVRIWRL-NH2) [Peptide 1018-L12] | 29 pg/mL
27 | HH2-R2: single substituted HH2 peptide (VRLRIRVAVIRA-NH2) | 604 pg/mL
28 | 1002-K5: single substituted 1002 peptide (VQRWKIVWRIRK-NH2) [Peptide 1002-K5] | 592.6 pg/mL
29 | 1002-R12: single substituted 1002 peptide (VQRWLIVWRIRR-NH2) [Peptide 1002-R12] | 270.8 pg/mL
30 | 1002-L4: single substituted 1002 peptide (VQRLLIVWRIRK-NH2) [Peptide 1002-L4] | 493.6 pg/mL

System: methicillin resistant Staphylococcus aureus (MRSA) biofilm
Test: not given
Conditions: approximate peptide concentration […] (around 3 μg/ml); compared to untreated samples
In short: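 Peptide was present from inoculation onward, with bacteria seeded at 1/100 from overnight cultures into BM2 biofilm medium or Luria Broth. Crystal violet staining of surface-attached cells (A595) quantified biofilm reduction at 22–46 h. K. pneumoniae was additionally screened in a real-time Bioflux flow device for some peptides.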

Row | Substance | % Biofilm inhibition
31 | 1002-I8: single substituted 1002 peptide (VQRWLIVIRIRK-NH2) [Peptide 1002-I8] | 69%
32 | HH2-W6: single substituted HH2 peptide (VQLRIWVAVIRA-NH2) | 56%
33 | HH2-A11: single substituted HH2 peptide (VQLRIRVAVIAA-NH2) | 64%
34 | HH2-L10: single substituted HH2 peptide (VQLRIRVAVLRA-NH2) | 63%
35 | 1018-Q2: single substituted 1018 peptide (VQLIVAVRIWRR-NH2) [Peptide 1018-Q2] | 52%
36 | HH2-Q6: single substituted HH2 peptide (VQLRIQVAVIRA-NH2) | 35%
37 | 1002-L3: single substituted 1002 peptide (VQLWLIVWRIRK-NH2) [Peptide 1002-L3] | 59%
38 | 1018-L2: single substituted 1018 peptide (VLLIVAVRIWRR-NH2) [Peptide 1018-L2] | 61%
39 | 1002-G10: single substituted 1002 peptide (VQRWLIVWRGRK-NH2) [Peptide 1002-G10] | 35%
40 | HH2-L2: single substituted HH2 peptide (VLLRIRVAVIRA-NH2) | 69%
41 | 1018-L12: single substituted 1018 peptide (VRLIVAVRIWRL-NH2) [Peptide 1018-L12] | 44%
42 | HH2-R2: single substituted HH2 peptide (VRLRIRVAVIRA-NH2) | 54%
43 | 1002-K5: single substituted 1002 peptide (VQRWKIVWRIRK-NH2) [Peptide 1002-K5] | 79%
44 | 1002-R12: single substituted 1002 peptide (VQRWLIVWRIRR-NH2) [Peptide 1002-R12] | 62%
45 | 1002-L4: single substituted 1002 peptide (VQRLLIVWRIRK-NH2) [Peptide 1002-L4] | 33%

System: LPS-stimulated human peripheral blood mononuclear cells (IL1-β)
Test: not given
Type: cell-based
Conditions: Table 12; cells stimulated with 10 ng/ml LPS

Row | Substance | Fold change in IL1β relative to no peptide LPS stimulated cells
46 | 1002-I8: single substituted 1002 peptide (VQRWLIVIRIRK-NH2) [Peptide 1002-I8] | 0.06
47 | HH2-W6: single substituted HH2 peptide (VQLRIWVAVIRA-NH2) | 0.55
48 | HH2-A11: single substituted HH2 peptide (VQLRIRVAVIAA-NH2) | 1.60
49 | HH2-L10: single substituted HH2 peptide (VQLRIRVAVLRA-NH2) | 1.04
50 | 1018-Q2: single substituted 1018 peptide (VQLIVAVRIWRR-NH2) [Peptide 1018-Q2] | 0.10
51 | HH2-Q6: single substituted HH2 peptide (VQLRIQVAVIRA-NH2) | 0.83
52 | 1002-L3: single substituted 1002 peptide (VQLWLIVWRIRK-NH2) [Peptide 1002-L3] | 0.05
53 | 1018-L2: single substituted 1018 peptide (VLLIVAVRIWRR-NH2) [Peptide 1018-L2] | 0.32
54 | 1002-G10: single substituted 1002 peptide (VQRWLIVWRGRK-NH2) [Peptide 1002-G10] | 0.09
55 | HH2-L2: single substituted HH2 peptide (VLLRIRVAVIRA-NH2) | 0.89
56 | 1018-L12: single substituted 1018 peptide (VRLIVAVRIWRL-NH2) [Peptide 1018-L12] | 0.17
57 | HH2-R2: single substituted HH2 peptide (VRLRIRVAVIRA-NH2) | 1.10
58 | 1002-K5: single substituted 1002 peptide (VQRWKIVWRIRK-NH2) [Peptide 1002-K5] | 0.14
59 | 1002-R12: single substituted 1002 peptide (VQRWLIVWRIRR-NH2) [Peptide 1002-R12] | 0.05
60 | 1002-L4: single substituted 1002 peptide (VQRLLIVWRIRK-NH2) [Peptide 1002-L4] | 0.12

Same assay, conditions: Table 12; cells stimulated with 10 ng/ml LPS; LPS alone 1313 (HH2 derivatives), 1927 (1018 derivatives), 2455 (1002 and hybrid peptides) pg/ml

Row | Substance | IL1β Production
61 | 1002-I8: single substituted 1002 peptide (VQRWLIVIRIRK-NH2) [Peptide 1002-I8] | 144 pg/mL
62 | HH2-W6: single substituted HH2 peptide (VQLRIWVAVIRA-NH2) | 718 pg/mL
63 | HH2-A11: single substituted HH2 peptide (VQLRIRVAVIAA-NH2) | 2105 pg/mL
64 | HH2-L10: single substituted HH2 peptide (VQLRIRVAVLRA-NH2) | 1359 pg/mL
65 | 1018-Q2: single substituted 1018 peptide (VQLIVAVRIWRR-NH2) [Peptide 1018-Q2] | 127 pg/mL
66 | HH2-Q6: single substituted HH2 peptide (VQLRIQVAVIRA-NH2) | 1088 pg/mL
67 | 1002-L3: single substituted 1002 peptide (VQLWLIVWRIRK-NH2) [Peptide 1002-L3] | 127 pg/mL
68 | 1018-L2: single substituted 1018 peptide (VLLIVAVRIWRR-NH2) [Peptide 1018-L2] | 426 pg/mL
69 | 1002-G10: single substituted 1002 peptide (VQRWLIVWRGRK-NH2) [Peptide 1002-G10] | 222 pg/mL
70 | HH2-L2: single substituted HH2 peptide (VLLRIRVAVIRA-NH2) | 1172 pg/mL
71 | 1018-L12: single substituted 1018 peptide (VRLIVAVRIWRL-NH2) [Peptide 1018-L12] | 220 pg/mL
72 | HH2-R2: single substituted HH2 peptide (VRLRIRVAVIRA-NH2) | 1438 pg/mL
73 | 1002-K5: single substituted 1002 peptide (VQRWKIVWRIRK-NH2) [Peptide 1002-K5] | 339 pg/mL
74 | 1002-R12: single substituted 1002 peptide (VQRWLIVWRIRR-NH2) [Peptide 1002-R12] | 127 pg/mL
75 | 1002-L4: single substituted 1002 peptide (VQRLLIVWRIRK-NH2) [Peptide 1002-L4] | 283 pg/mL
